Results: ChEMBL document CHEMBL1121909, “Alkylating angiotensin II analogues: synthesis, analysis, and biological activity of angiotensin II analogues containing the nitrogen mustard melphalan in position 8” (J Med Chem, 1981)
Where a SMILES comes first, the peptide text is derived from it. [ ]: non-standard residue; d: D form. Phe(4-N(CH2CH2Cl)2) = N[C@@H](Cc1ccc(N(CCCl)CCCl)cc1)C(=O)O

How the values were obtained:
Rattus norvegicus [1] = species: Rattus norvegicus; assay: Antagonism against angiotensin II induced contraction in Rat uterine preparation; format: functional; conditions: read-out: pA2 (converted)
Rattus norvegicus [2] = assay: The compound was tested in vivo for pressor activity in Rat uterine preparation; format: functional

Row | SMILES | Kb (Rattus norvegicus [1]) | Activity (Rattus norvegicus [2])
1 | CC[C@H](C)[C@H](NC(=O)[C@H](Cc1ccc(O)cc1)NC(=O)[C@@H](NC(=O)[C@H](CCCN=C(N)N)NC(=O)[C@H](CC(N)=O)NC(C)=O)C(C)C)C(=O)N[C@@H](Cc1c[nH]cn1)C(=O)N1CCC[C@H]1C(=O)N[C@@H](Cc1ccc(N(CCCl)CCCl)cc1)C(=O)O (Ac-NRVYIHP[Phe(4-N(CH2CH2Cl)2)]-OH) | 3.16 nM | –
2 | CC[C@H](C)[C@@H](NC(=O)[C@H](Cc1ccc(O)cc1)NC(=O)[C@@H](NC(=O)[C@H](CCCNC(N)N)NC(=O)[C@@H](N)CC(=O)O)C(C)C)[C@@H](C)N[C@@H](Cc1c[nH]cn1)C(=O)N1CCC[C@@H]1C(=O)N[C@@H](Cc1ccc(N(CCCl)CCCl)cc1)C(=O)O | – | 0.3%
